Source: patent US20050090433A1 (priority 2002, published 2005)
Values after ≈ are worked out from the molar mass of the structure shown. Read-outs that look alike come from different tables or passages of the source.

Tests used:
Dog albumin = Dog albumin (Canis lupus familiaris, UniProt P49822); test: Protein binding by isothermal titration microcalorimetry; conditions: Apparent binding affinity Ka, pH 7.4, ± SD of fit
Method: (§3) Integrated heat effects, after correction for heats of dilution, were analyzed by non-linear regression using a simple single-site binding model with the standard Microcal ORIGIN software package. Raw data (μcal/sec) for each injection were integrated to give the total heat effect per addition, then divided by amount of injectant to give kcal/mole of injectant. The same integration was applied for control dilution effects, and this was subtracted from the actual titration data. This provided a differential of the binding curve in which the extent of binding is proportional to the total heat liberated (or absorbed). This was then analyzed by non-linear regression methods in terms of various standard binding models.

[1] = human, in vivo
Method: (§4) Adverse events were recorded and assessed for severity and relationship to study drug. Laboratory data (chemistry panel, CBC with differential, urinalysis) were collected and assessed for changes from baseline and out-of-range values. ECG, physical examination, and vital signs were obtained, and changes from baseline were assessed.

[2] = pH 7.4
Rat albumin = Rat albumin (Rattus norvegicus, UniProt P02770); test: Protein binding by isothermal titration microcalorimetry; conditions: Apparent binding affinity Ka, pH 7.4, ± SD of fit
Sequence of Rat albumin (P02770 25-608): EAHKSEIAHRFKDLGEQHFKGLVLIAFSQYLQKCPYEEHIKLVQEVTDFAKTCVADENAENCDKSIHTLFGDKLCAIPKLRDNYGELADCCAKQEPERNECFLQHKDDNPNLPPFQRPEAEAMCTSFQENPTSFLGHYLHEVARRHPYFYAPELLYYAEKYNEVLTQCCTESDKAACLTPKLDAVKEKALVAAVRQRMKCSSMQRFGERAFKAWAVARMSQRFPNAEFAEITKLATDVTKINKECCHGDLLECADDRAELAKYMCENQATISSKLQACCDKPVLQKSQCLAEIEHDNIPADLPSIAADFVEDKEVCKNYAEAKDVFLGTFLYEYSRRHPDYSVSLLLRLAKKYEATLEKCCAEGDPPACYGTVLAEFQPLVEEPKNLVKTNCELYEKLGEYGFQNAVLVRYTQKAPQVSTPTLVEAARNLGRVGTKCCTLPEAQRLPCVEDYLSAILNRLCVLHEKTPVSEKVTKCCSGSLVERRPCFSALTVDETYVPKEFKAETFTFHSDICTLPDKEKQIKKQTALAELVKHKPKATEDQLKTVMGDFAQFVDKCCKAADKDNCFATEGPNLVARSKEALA
Method: as §3

Bovine albumin = Bovine albumin (Bos taurus, UniProt P02769); test: as above
Sequence of Bovine albumin (P02769 25-607): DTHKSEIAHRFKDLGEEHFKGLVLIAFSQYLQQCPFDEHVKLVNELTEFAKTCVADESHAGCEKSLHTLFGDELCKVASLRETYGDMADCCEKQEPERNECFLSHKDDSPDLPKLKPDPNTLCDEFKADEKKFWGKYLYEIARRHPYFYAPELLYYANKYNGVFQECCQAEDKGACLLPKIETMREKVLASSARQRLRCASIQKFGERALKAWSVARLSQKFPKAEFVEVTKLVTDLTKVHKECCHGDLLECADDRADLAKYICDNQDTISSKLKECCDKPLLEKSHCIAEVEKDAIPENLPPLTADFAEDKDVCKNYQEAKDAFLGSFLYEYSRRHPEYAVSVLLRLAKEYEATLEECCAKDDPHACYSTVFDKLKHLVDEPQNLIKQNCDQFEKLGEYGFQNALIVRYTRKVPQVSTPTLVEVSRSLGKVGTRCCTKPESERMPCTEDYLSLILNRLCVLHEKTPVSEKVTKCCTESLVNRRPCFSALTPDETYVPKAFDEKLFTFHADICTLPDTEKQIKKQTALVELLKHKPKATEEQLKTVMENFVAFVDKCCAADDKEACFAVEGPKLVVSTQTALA
Method: as §3

[3] = Pharmacokinetics and renal excretion in healthy subjects; conditions: human, in vivo, iv, 1000 mg; for half-life: healthy subjects, single 1000 mg IV
Method: Blood samples were drawn into heparinized tubes and centrifuged. Plasma was separated and stored frozen at −20° C. until time of assay. Plasma and urine samples were assayed for dalbavancin using validated LC/MS/MS methods. […] The peak concentration (Cmax) values were obtained directly from the observed data. The area under the plasma concentration-time curve (AUC) was calculated using the linear trapezoidal rule. Clearance (CL) was computed as dose/AUC. The elimination half life (t1/2) was estimated by linear regression of the log-linear portion of the log concentration versus time curve. Estimates of the volume of distribution (Vz) was calculated using the regression parameters, while the volume of distribution at steady state (Vss) was calculated from the area under the first moment curve (AUMC) multiplied by the dose and divided by AUC. The cumulative amount of dalbavancin excreted in urine was determined as the integrand of the urine excretion rate (AURC). CLR or renal clearance, was calculated as the ratio: CLR=AURC/AUC.

[4] = rat, in vivo
Method: (§5) Excreta and more than 40 different tissues were collected through 70 days post-administration, and the tissue distribution and pharmacokinetics of drug-derived radioactivity were determined.
Following dose administration, urine and feces were collected at 24 hour intervals to 14, 36, and 70 days after the dose (3 rats/final collection time). Water and methanol cage washes were also collected. Carcasses were analyzed at the end of the collection period. AU samples were analyzed for total radioactivity content by liquid scintillation counting (LSC).

bacteria = test: Minimum bactericidal concentration; type: cell-based; conditions: 24 h, kill at least 99% of bacteria over 24 hour in vitro; in plasma
Description: The amount of dalbavancin administered may be any of the dosages disclosed herein.

[5] = test system: Gram-positive isolates, including MRSA; test: Dalbavancin MIC, Gram-positive isolates of SSTI trial; type: cell-based; conditions: Staphylococcus aureus, read-out: MICs against Gram-positive isolates, including MRSA
Gram-positive pathogen = test: SSTI trial: microbiologic response, all Gram-positive organisms; type: in vivo, human; conditions: single dose; EOT and FU, microbiologically-evaluable and MITT populations
Method: (§1) This randomized, controlled study evaluated the safety and efficacy of two dose regimens of dalbavancin.
(§2) There were 62 patients randomized into the study, all received at least one dose of study medication. Four study populations were evaluated for safety and efficacy and were defined as follows: The intent-to-treat (I) population included all patients who received at least one dose of study drug (all randomized study subjects).
Microbiological outcome, a secondary efficacy variable, was assessed in the subpopulation of patients who had microbiologically documented SSTI (i.e., at least one identified baseline pathogen). A microbiologic response was assessed for each Gram-positive pathogen identified at baseline (i.e., eradication, presumed eradication, persistence, presumed persistence). For patients for whom follow-up cultures were not performed, the microbiologic responses for baseline pathogens were presumed on the basis of the clinical response. Microbiologic response by patient at the EOT and FU visits was graded as success (i.e., all Gram-positive organisms eradicated or presumed eradicated) or failure (i.e., at least one Gram-positive organism persisted or presumed to have persisted, multiple pathogens with partial eradication). At both the EOT and FU visits, colonization and superinfection were assessed. […]

[6] = SSTI trial: adverse events; type: in vivo, human
Method: as §1
Each patient who received at least one dose of study drug (ITT population) was evaluated for drug safety through monitoring of adverse events (AE), including abnormal clinical laboratory test results and vital signs. AE were rated by the investigator as to their severity (mild, moderate, severe, life-threatening), and by the relationship to the study drug (not related, unlikely related, possibly related, or probably related).

[7] = test system: methicillin-resistant S. aureus (MRSA); type: in vivo
Method: The effectiveness of the three treatment regimens was determined by assessing the patients' clinical response and the documented or presumed microbiological responses. The primary efficacy endpoint was clinical response at the follow-up visit for the clinically evaluable population. Clinical response, for both EOT and FU visits, was categorized as success (cure or improvement) or failure (including indeterminate results). […] Failure was defined as persistence of one or more local or systemic signs and symptoms of SSTI such that treatment with new or additional systemic antibacterial agents was required for the SSTI.
Microbiological outcome, a secondary efficacy variable, was assessed in the subpopulation of patients who had microbiologically documented SSTI (i.e., at least one identified baseline pathogen). A microbiologic response was assessed for each Gram-positive pathogen identified at baseline (i.e., eradication, presumed eradication, persistence, presumed persistence). For patients for whom follow-up cultures were not performed, the microbiologic responses for baseline pathogens were presumed on the basis of the clinical response. […] At both the EOT and FU visits, colonization and superinfection were assessed. […]

human α-glycoprotein = conditions: pH 7.4
Method: as §3

[8] = Rat quantitative tissue distribution (QTD) study; conditions: male rats, single IV infusion 20 mg/kg
Method: as §5
Rats (3 per time-point) were euthanized at 12, 24, 48, 72, 96, 120, 144, 168, 336, 840, 1176 and 1680 hours post dose for collection of blood, plasma, and tissues (including carcass). All samples were analyzed by LSC.
As part of the QTD studies, bile samples were collected from bile duct cannulated rats (4 animals) through 384 h (16 days) post-dose.

[9] = Safety assessments in healthy subjects; conditions: single 1000 mg IV
Method: as §4

Human albumin = Human albumin (Homo sapiens, UniProt P02768); test: Protein binding by isothermal titration microcalorimetry; conditions: Apparent binding affinity Ka, Human albumin, pH 7.4, ± SD of fit
Sequence of Human albumin (P02768 25-609): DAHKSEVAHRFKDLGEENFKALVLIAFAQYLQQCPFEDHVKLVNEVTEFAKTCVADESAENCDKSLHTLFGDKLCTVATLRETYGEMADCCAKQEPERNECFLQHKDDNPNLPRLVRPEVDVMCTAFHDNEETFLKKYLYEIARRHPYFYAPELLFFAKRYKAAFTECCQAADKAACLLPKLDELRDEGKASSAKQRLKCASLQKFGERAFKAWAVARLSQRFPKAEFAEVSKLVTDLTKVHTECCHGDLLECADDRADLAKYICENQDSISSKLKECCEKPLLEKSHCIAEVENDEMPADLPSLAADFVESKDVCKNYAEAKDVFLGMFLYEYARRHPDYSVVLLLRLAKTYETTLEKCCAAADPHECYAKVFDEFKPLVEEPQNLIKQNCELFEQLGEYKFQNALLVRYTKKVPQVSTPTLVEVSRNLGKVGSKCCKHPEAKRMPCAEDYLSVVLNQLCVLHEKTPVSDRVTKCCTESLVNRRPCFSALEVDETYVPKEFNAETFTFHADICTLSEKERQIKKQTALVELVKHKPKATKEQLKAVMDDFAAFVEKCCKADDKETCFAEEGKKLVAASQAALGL
Method: as §3

[10] = test system: skin and soft tissue infections (SSTI); test: Phase II trial in deep skin and soft tissue infections: clinical response; type: in vivo, human; conditions: exploratory subanalysis
Method: as §1, §2
The effectiveness of the three treatment regimens was determined by assessing the patients' clinical response and the documented or presumed microbiological responses. The primary efficacy endpoint was clinical response at the follow-up visit for the clinically evaluable population. Clinical response, for both EOT and FU visits, was categorized as success (cure or improvement) or failure (including indeterminate results). Patients classified as successes must not have received additional systemic antibacterial treatment for their infection. Failure was defined as persistence of one or more local or systemic signs and symptoms of SSTI such that treatment with new or additional systemic antibacterial agents was required for the SSTI.

[11] = two-dose 1000 mg IV day 1, 500 mg day 8

Sequence of Dog albumin (P49822 25-608): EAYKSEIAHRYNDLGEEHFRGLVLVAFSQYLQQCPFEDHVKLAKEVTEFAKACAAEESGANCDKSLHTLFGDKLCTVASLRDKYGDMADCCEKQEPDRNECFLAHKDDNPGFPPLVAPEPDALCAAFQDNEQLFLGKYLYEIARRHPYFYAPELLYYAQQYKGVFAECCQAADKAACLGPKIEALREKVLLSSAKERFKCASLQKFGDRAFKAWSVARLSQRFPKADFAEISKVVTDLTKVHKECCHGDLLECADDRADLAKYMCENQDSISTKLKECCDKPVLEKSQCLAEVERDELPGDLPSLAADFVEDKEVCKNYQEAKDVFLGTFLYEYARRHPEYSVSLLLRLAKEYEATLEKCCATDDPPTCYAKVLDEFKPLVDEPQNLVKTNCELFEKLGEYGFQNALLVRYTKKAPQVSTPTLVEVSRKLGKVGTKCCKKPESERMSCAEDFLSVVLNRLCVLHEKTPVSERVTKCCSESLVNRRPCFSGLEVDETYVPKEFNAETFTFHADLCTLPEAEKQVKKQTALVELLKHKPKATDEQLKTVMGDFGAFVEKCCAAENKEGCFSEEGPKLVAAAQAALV

With `CN[C@H]1C(=O)N[C@@H]2Cc3ccc(cc3)Oc3cc4cc(c3O[C@@H]3O[C@H](C(=O)O)[C@@H](O)[C@H](O)[C@H]3NC(=O)CCCCCCCCC(C)C)Oc3ccc(cc3Cl)[C@@H](O)[C@@H]3NC(=O)[C@H](NC(=O)[C@@H]4NC(=O)[C@@H](NC2=O)c2cc(cc(O)c2Cl)Oc2cc1ccc2O)c1ccc(O)c(c1)-c1c(O[C@H]2O[C@H](CO)[C@@H](O)[C@H](O)[C@@H]2O)cc(O)cc1[C@@H](C(=O)NCCCN(C)C)NC3=O` [Dalbavancin] the Kd (Dog albumin; 25° C.) was 16.1 µM, the Kd (Dog albumin; 37° C.) was 20 µM and the “Eosinophilia, AE possibly related to study medication” value [1] was 500 µL⁻¹. For the same molecule, the “Intensity of reported AEs” value [1] was “all of mild intensity”, the “Solubility in the presence of HSA” value [2] was “significantly increased” and the Kd (Rat albumin; 25° C.) was 3.23 µM. The Kd (Rat albumin; 37° C.) was 3.57 µM, the Kd (Bovine albumin) was 7.25 µM and the AUC ([3]; both sexes) was 23800 µg·h/mL. The clearance ([3]; both sexes) was 0.718 mL/min, the Vd ([3]; both sexes, Apparent volume of distribution) was > 10 L and the CL renal ([3]; both sexes, CLR) was 0.3 mL/min. For the same molecule, the Vd ([3]; both sexes, VSS) was 11.5 L, the Vd ([3]; both sexes, VZ) was 16 L and the half-life ([3]; both sexes) was 9 to 12 days. It also gave a half-life ([3]; both sexes, mean) of 10.7 days, a CL ([3]; both) of 0.0431 L/h and a CLR ([3]; both) of 0.0181 L/h. The “Dose remaining in the carcass” value ([4]; male, Sprague-Dawley, 1680 h) was 4.5%, the “Radioactivity administered eliminated in urine and feces within the first week” value ([4]; iv, 20 mg/kg) was “Approximately half” and the “Share of excreted radioactivity eliminated in feces” value ([4]; iv, 20 mg/kg) was “⅓”. For the same molecule, the “Share of excreted radioactivity eliminated in urine” value ([4]; iv, 20 mg/kg) was “⅔”, the MBC (bacteria) was 4 to 10 µg/mL (≈ 2.2 to 5.5 µM) and the MIC [5] was 0.016 to 0.25 µg/mL (≈ 0.00881 to 0.138 µM). The “Microbiologic success rates at both visits (summary)” value (Gram-positive pathogen) was < 40%, the “AE leading to discontinuation of study medication” value ([6]; human, in vivo) was 0% and the “≧1 AE” value ([6]; human, in vivo) was 95%. The “≧1 severe AE” value ([6]; human, in vivo) was 2 (10%), the Hepatotoxicity or nephrotoxicity ([6]; in vivo) was “no evidence that dalbavancin induces any degree of clinically significant hepatotoxicity or nephrotoxicity” and the “Serious adverse events related to study drug” value ([6]; in vivo) was “no serious adverse events related to study drug treatment”. For the same molecule, the Tolerability ([6]; in vivo) was “well tolerated”, the “≧1 AE possibly/probably related to treatment” value ([6]; single-dose (N = 20)) was 55% and the “≧1 AE possibly/probably related to treatment” value ([6]; two-dose (N = 21)) was 48%. The “Clinical success rate at FU, MITT patients with MRSA” value ([7]; single-dose 1100 mg IV day 1) was 50%, the “Clinical success rate at FU, MITT patients with MRSA” value [7, 11] was 80% and the “Calculated percent Binding, Human α-glycoprotein” value (from here on “Calculated percent Binding”) (human α-glycoprotein; 1 μM) was 73.0%. The “Calculated percent Binding” value (human α-glycoprotein; 10 μM) was 68.2%, the “Calculated percent Binding” value (human α-glycoprotein; 100 μM) was 26.2% and the “Calculated percent Binding” value (human α-glycoprotein; 165 μM) was 16.9%. The “Calculated percent Binding” value (human α-glycoprotein; 250 μM) was 11.4%, the “Calculated percent Binding” value (human α-glycoprotein; 500 μM) was 5.9% and the “Skin concentrations of drug-derived radioactivity relative to plasma” value [8] was “as high as or higher than in plasma”. The “Deaths or serious adverse events” value [9] was “No subject deaths or serious adverse events”, the Kd (Human albumin; 25° C.) was 7.41 µM and the Kd (Human albumin; 37° C.) was 7.52 µM. For the same molecule, the “Clinical success rate, patients with deep or complicated SSTI at baseline” value ([10]; single-dose 1100 mg IV day 1) was 58.3% and the “Clinical success rate, patients with deep or complicated SSTI at baseline” value [10, 11] was 93.8%.
